Measurements published in patent US20190359645A1, “2'3'-CYCLIC DINUCLEOTIDES COMPRISING CARBOCYCLIC NUCLEOTIDE” (Institute of Organic Chemistry and Biochemistry ASCR, V.V.I., priority 2018, published 2019).

How the values were obtained:
AQ STING (G230A-R293Q) = molecular target: T1, AQ STING (G230A-R293Q) (Homo sapiens, UniProt Q86WV6, G230A/H232R/R293Q); test: Differential scanning fluorimetry (DSF) with AQ STING; type: binding; conditions: thermal shift, truncated human AQ STING 0.1 mg/ml, 150 μM CDN; for ΔTm at 150 µM: read-out: DSF ΔTm AQ STING
T1 construct: truncated human WT STING or AQ STING (amino acid residues 140-343); 8xHis (N, cleaved yes); SUMO (N, cleaved yes); made in house; host or cells: E. coli Rosetta-gami B (DE3)
T1 sequence (Q86WV6 140-343 G230A/H232R/R293Q): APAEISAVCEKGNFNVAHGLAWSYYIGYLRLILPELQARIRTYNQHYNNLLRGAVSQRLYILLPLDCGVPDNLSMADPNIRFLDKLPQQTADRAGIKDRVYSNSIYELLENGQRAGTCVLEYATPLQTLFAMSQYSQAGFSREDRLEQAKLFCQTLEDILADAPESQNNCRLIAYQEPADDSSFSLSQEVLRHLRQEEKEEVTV
Description: (§1) Both WT and AQ human STING (G230A-R^293Q) cDNA were amplified by the use of PCR (Phusion® High-Fidelity DNA Polymerase, cat. # M0530S, NEB, Ipswich, USA) using oligonucleotides hSTING140-BamH-For ([…]) (SEQ ID NO:5) and hSTING379-Not-Rev3 ([…]) (SEQ ID NO:6) from pUNOI-hSTING-WT (cat. # punol-hstingwt, InvivoGen, San Diego, USA) and pUNO1-hSTING-HAQ plasmids (punol-hsting-haq, InvivoGen, San Diego, USA). Purified PCR products were cleaved with restriction enzymes BamHI (cat. # R^0136S, NEB, Ipswich, USA) and NotI (cat. # R^0189S, NEB, Ipswich, USA) and cloned into the pSUMO vector linearized with the identical enzymes. Plasmid pSUMO was created by introducing 8-His-SUMO sequence between NdeI and BamHI sites of pHis-parallel2 plasmid (Clontech, Moutain View, USA). pSUMO-STING WT or pSUMO-STING AQ plasmids thus encoded truncated human WT STING or AQ STING (amino acid residues 140-343) with N-terminal 8×His and SUMO tag.
(§2) The recombinant WT STING and AQ STING proteins were overexpressed in Rosetta-gami B (DE3) competent cells (cat. #71136-3, Merck Millipore, Billerica, USA). Bacterial pellets were re-suspended in ice-cold lysis buffer containing 50 mmol·l^−1 TrisCl (cat. # T1503, Sigma Aldrich, Czech Republic) pH 8.0, 300 mmol·l^−1 NaCl, 3 mmol·l^−1 (3-mercaptoethanol (cat. # M6250, Sigma Aldrich, Czech Republic), 10% glycerol (cat. #G5516, Sigma Aldrich, Czech Republic) and 20 mmol·l^−1 imidazole (cat. #15513, Sigma Aldrich, Czech Republic) using Dounce homogenizer. DNase I (cat. # D5025, Sigma Aldrich, Czech Republic) and RNase A (cat. # R^6513, Sigma Aldrich, Czech Republic) were added (final concentration 50 μg/ml) together with MgCl2 (final concentration 5 mmol·l^−1) to the homogenate and bacteria were lysed using French Press G-M™ High-Pressure Cell Press Homogenizer (1500 psi, 3 cycles). Lysate was spun 30,000 g for 20 minutes and supernatant was gently stirred with Ni-NTA resin (cat. #745400.25 Macherey-Nagel, Duren, Germany) for 30 minutes. The resin was poured into a chromatography column, washed with 50 ml buffer A (50 mmol·l^−1 TrisCl (pH 8.0), 800 mmol·l^−1 NaCl, 3 mmol·l^−1β-mercaptoethanol; 10% glycerol; 20 mmol·l^−1 imidazole) and 8-His-SUMO tagged STING proteins were eluted with 15 ml buffer A containing 300 mmol·l^−1 imidazole. The eluted proteins were cleaved with recombinant SUMO protease (80 pig/ml of protein solution, cat. #12588018, ThermoFisher, Waltham, USA). The proteins were further purified by size exclusion chromatography using HiLoad 16/60 Superdex 75 (cat. #28989333, GE Healthcare Bio-Sciences, Pittsburgh, USA) in 50 mmol·l^−1 Tris C1 buffer pH 7.4 containing 150 mmol·l^−1 NaCl, and 10% glycerol. Proteins were concentrated with Amicon® Ultra-15 10 K device (cat. # UFC901008, Merck Millipore, Billerica, USA) and flash frozen in liquid N2.
(§3) WT and AQ allelic forms of STING protein were diluted to the final concentration 0.1 mg/ml in 100 mmol·l^−1 TrisCl buffer pH 7.4 containing, 150 mmol·l^−1 NaCl, 1:500 SYPRO Orange (cat. # S6650, ThermoFisher, Waltham, USA) and 150 μM CDN or water. 20 μL solutions of the reaction mixtures were pipetted in triplicates into 96 well optical reaction plates and thermal denaturation of samples were performed on real time PCR cycler (LightCycler® 480 Instrument II—Roche, Basel, Switzerland). The first derivative of the thermal denaturation curves was performed to calculate denaturing temperatures of STING-CDN complexes and STING apoproteins. The thermal shift for each CDN was calculated by subtracting the average denaturing temperature of STING apoprotein from the average denaturing temperature of STING CDN complex.

WT STING = WT STING (Homo sapiens, UniProt Q86WV6, H232R); test: Differential scanning fluorimetry (DSF) with WT STING; type: binding; design: truncated human WT STING or AQ STING (amino acid residues 140-343); 8xHis (N, cleaved yes); SUMO (N, cleaved yes); made in house; host or cells: E. coli Rosetta-gami B (DE3); conditions: thermal shift, truncated human WT STING 0.1 mg/ml, 150 μM CDN; for ΔTm at 150 µM: read-out: DSF ΔTm WT STING
Chain of WT STING (Q86WV6 140-343 H232R): as the sequence (Q86WV6 140-343 G230A/H232R/R293Q) above, with A91G, Q154R counted along it
Description: as §1, §2, §3

| Compound | DSF ΔTm AQ STING (AQ STING (G230A-R293Q)) [°C] | DSF ΔTm WT STING (WT STING) [°C] | ΔTm at 150 µM (AQ STING (G230A-R293Q)) [°C] | ΔTm at 150 µM (WT STING) [°C] |
| --- | --- | --- | --- | --- |
| Nc1nc2c(ncn2[C@@H]2C[C@@H]3COP(=O)(S)OC4C(O)[C@H](n5cnc6c(N)ncnc65)O[C@@H]4COP(=O)(O)OC2C3O)c(=O)[nH]1 (stereo partly drawn) [Compound 118, (6R,8R,15R,17R)-17-(2-amino-6-oxo-6,9-dihydro-1H-purin-9-yl)-8-(6-amino-9H-purin-9-yl)-3,9,18-trihydroxy-12-sulfanyl-2,4,7,11,13-pentaoxa-3λ^5,12λ^5-diphosphatricyclo[13.2.1.0^6,10]octadecane-3,12-dione] |  |  | 16 | 8.5 |
| Cc1cn([C@@H]2O[C@@H]3COP(=O)(O)OC4C(O)[C@@H](COP(=O)(O)OC3C2O)C[C@H]4n2cnc3c(=O)[nH]c(N)nc32)c2ncnc(N)c12 (stereo partly drawn) [Compound 113, (6R,8R,15R,17R)-8-{4-amino-5-methyl-7H-pyrrolo[2,3-d]pyrimidin-7-yl}-17-(2-amino-6-oxo-6,9-dihydro-1H-purin-9-yl)-3,9,12,18-tetrahydroxy-2,4,7,11,13-pentaoxa-3λ^5,12λ^5-diphosphatricyclo[13.2.1.0^6,10]octadecane-3,12-dione] |  |  | 11.6 | 6 |
| Nc1nc(N)c2ncn([C@@H]3O[C@@H]4COP(=O)(O)OC5C(O)[C@@H](COP(=O)(O)OC4C3O)C[C@H]5n3cnc4c(=O)[nH]c(N)nc43)c2n1 (stereo partly drawn) [Compound 105, (6R,8R,15R,17R)-17-(2-amino-6-oxo-6,9-dihydro-1H-purin-9-yl)-8-(2,6-diamino-9H-purin-9-yl)-3,9,12,18-tetrahydroxy-2,4,7,11,13-pentaoxa-3λ^5,12λ^5-diphosphatricyclo[13.2.1.0^6,10]octadecane-3,12-dione] |  |  | 13.2 | 5.2 |

Other lines, results leading:

| DSF ΔTm AQ STING (AQ STING (G230A-R293Q)) [°C] | DSF ΔTm WT STING (WT STING) [°C] | ΔTm at 150 µM (AQ STING (G230A-R293Q)) [°C] | ΔTm at 150 µM (WT STING) [°C] | Compound |
| --- | --- | --- | --- | --- |
| 17.0 | 9.4 |  |  | Nc1ncnc2c1ncn2[C@@H]1O[C@@H]2COP(=O)(O)OC3C(O)[C@@H](COP(=O)(O)OC2C1O)C[C@H]3n1cnc2c(=O)[nH]cnc21 (stereo partly drawn) [Compound 121, (6R,8R,15R,17R)-8-(6-amino-9H-purin-9-yl)-3,9,12,18-tetrahydroxy-17-(6-oxo-6,9-dihydro-1H-purin-9-yl)-2,4,7,11,13-pentaoxa-3λ^5,12λ^5-diphosphatricyclo[13.2.1.0^6,10]octadecane-3,12-dione] |
|  |  | 18.3 | 10.6 | Nc1ncnc2c1ncn2[C@@H]1O[C@@H]2COP(=O)(O)OC3C(O)[C@@H](COP(=O)(O)OC2C1O)C[C@H]3n1cnc2c(=O)[nH]cnc21 (stereo partly drawn) [Compound 120, (6R,8R,15R,17R)-8-(6-amino-9H-purin-9-yl)-3,9,12,18-tetrahydroxy-17-(6-oxo-6,9-dihydro-1H-purin-9-yl)-2,4,7,11,13-pentaoxa-3λ^5,12λ^5-diphosphatricyclo[13.2.1.0^6,10]octadecane-3,12-dione] |
|  |  | 7.9 | 2.2 | Nc1nc2c(ncn2[C@@H]2C[C@@H]3COP(=O)(O)OC4C(O)[C@H](n5cnc6c(S)ncnc65)O[C@@H]4COP(=O)(O)OC2C3O)c(=O)[nH]1 (stereo partly drawn) [Compound 107, (6R,8R,15R,17R)-17-(2-amino-6-oxo-6,9-dihydro-1H-purin-9-yl)-3,9,12,18-tetrahydroxy-8-(6-sulfanyl-9H-purin-9-yl)-2,4,7,11,13-pentaoxa-3λ^5,12λ^5-diphosphatricyclo[13.2.1.0^6,10]octadecane-3,12-dione] |
